Results filed as inconclusive are left out. The source made the active and inactive calls.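 The calls were made as follows: active = fitted curve reaches 10% of positive control caspase signal at or below top valid tested dose; inconclusive = flat fit at 30 to 70% activity, or unreliable fit; inactive = the rest.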
How the values were obtained:
[1] = apoptosis induction in HMC1-8 cells – cell-based, caspase luminescence, dry powder, set 2, selectivity assay for Bcl2-A1 inhibitor project, dose response (AID 504343); conditions: HMC1-8 Mcl1-dependent cells, caspase-Glo luminescence, 4 h; at 35 µM (top of the series)
[2] = test system: HMC1-8 Mcl1-dependent cells, caspase-Glo luminescence, 4 h; assay: as above

SMILES	caspase activation [1]	AC10 [2]
CN1C(=O)C(C)(C)N(Cc2ccccc2)c2ccccc21	9.6% (inactive)	
O=[N+]([O-])c1cnc2ccccc2c1Sc1ccccc1		25 µM
Cc1ccc(Sc2c([N+](=O)[O-])cnc3ccccc23)cc1		25 µM
C/C1=C/C(=O)O[C@@H]2C[C@@H](CC[C@H](C)/C=C\CC1)O[C@@](O)(C1CSC(=O)N1)C2 (some centres not stated)		> 35 µM (inactive)
Cc1ccc(Nc2c([N+](=O)[O-])c(=O)oc3ccccc23)cc1	12.1% (inactive)	
CCOCCCNc1c([N+](=O)[O-])c(=O)n(C)c2ccccc12	-2.94% (inactive)	
Cn1c(=O)c([N+](=O)[O-])c(Nc2ccc(Cl)cc2)c2ccccc21	1.67% (inactive)	
Cn1c(=O)c([N+](=O)[O-])c(Oc2ccccc2)c2ccccc21	2.58% (inactive)	
Cn1c(=O)c([N+](=O)[O-])c(-n2cnc3ccccc32)c2ccccc21		20 µM
Cn1c(=O)c([N+](=O)[O-])c(Cl)c2ccccc21	-12.8% (inactive)	
Cc1ccc(Sc2c([N+](=O)[O-])c(=O)n(C)c3ccccc23)cc1	0.553% (inactive)	
Cc1ccc(Nc2c([N+](=O)[O-])c(=O)n(C)c3ccccc23)cc1	10.1% (inactive)	

From PubChem BioAssay AID504343 (Broad Institute, 2011)
